Test results as given in patent US8772499B2, “TRPV3 modulators” (AbbVie Inc., priority 2011, dated 2014).
Like-named read-outs stand apart in the source and are kept apart here.

Target: T1, human TRPV3 (Homo sapiens, UniProt Q8NET8)
T1 construct: expressed in transfected cells
T1 sequence (Q8NET8 1-790): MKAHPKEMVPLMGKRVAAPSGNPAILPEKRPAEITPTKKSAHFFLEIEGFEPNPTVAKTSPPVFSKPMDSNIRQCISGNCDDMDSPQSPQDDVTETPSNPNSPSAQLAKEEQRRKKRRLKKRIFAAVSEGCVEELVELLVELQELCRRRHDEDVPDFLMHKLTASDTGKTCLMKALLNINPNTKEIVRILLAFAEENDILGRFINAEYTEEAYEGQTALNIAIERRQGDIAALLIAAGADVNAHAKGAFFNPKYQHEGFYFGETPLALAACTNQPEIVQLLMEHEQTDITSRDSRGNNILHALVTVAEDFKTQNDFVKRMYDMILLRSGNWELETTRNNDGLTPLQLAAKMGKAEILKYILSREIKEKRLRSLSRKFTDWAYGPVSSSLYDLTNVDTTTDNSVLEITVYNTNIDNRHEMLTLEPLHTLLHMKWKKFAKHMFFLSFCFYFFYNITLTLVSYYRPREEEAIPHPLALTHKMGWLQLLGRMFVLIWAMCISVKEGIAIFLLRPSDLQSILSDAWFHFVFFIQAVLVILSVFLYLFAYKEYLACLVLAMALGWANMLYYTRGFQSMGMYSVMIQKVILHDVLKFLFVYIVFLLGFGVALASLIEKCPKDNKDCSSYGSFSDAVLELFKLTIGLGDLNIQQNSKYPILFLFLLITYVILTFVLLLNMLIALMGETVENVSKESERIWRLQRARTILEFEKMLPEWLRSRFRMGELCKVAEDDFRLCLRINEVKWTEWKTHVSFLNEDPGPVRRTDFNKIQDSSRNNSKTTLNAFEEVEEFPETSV
Assay: In vitro antagonism of recombinant human TRPV3 activation (FLIPR Tetra calcium assay)
Format: cell-based
Settings: HEK293 cells stably expressing human TRPV3, agonist 2-APB at 80 μM
Procedure: Test compounds were evaluated for ability to antagonize the activation of recombinant human TRPV3 using FLIPR® Tetra cellular screening. Specifically, on the day prior to the experiment recombinant HEK293 cells that stably express human TRPV3 were removed from tissue culture flasks and plated in growth medium at 20,000 cells/well into Poly-d-lysine coated black/clear 384-well Plate (Corning, 3845) using a Multidrop® dispenser (ThermoScientific, Waltham, Mass.). Prior to the start of the assay, the medium was removed by aspiration, and cells were loaded with 30 μL no-wash FLIPR® Calcium-4 dye (λEX=470-495 nm, λEM=515-575 nm; Molecular Devices, Sunnyvale, Calif.). The cells were then incubated for 90-120 minutes in the dark prior to addition of the test compound.
A double-addition protocol was used. The test compound (i.e., the TRPV3 antagonist) was added at the 10 second time point, followed by the addition of a TRPV3 agonist three minutes later. Each test compound evaluated was first dissolved in DMSO to prepare a 10 mM stock solution. A solution (5×) of the test compound was then prepared in DPBS (Dulbecco's Phosphate Buffered Saline) and 10 μl, of that solution was added to the cells at a delivery rate of 40 μL/sec. The TRPV3 agonist used to activate human TRPV3 expressed by the […] was 2-aminoethoxy-diphenyl borate (2-APB; Tocris Cookson, Ellisville, Mo.) at 80 μM. Final assay volume was 50 μl, Total length of an experimental run was 10 minutes.
Changes in fluorescence were measured over time using the FLIPR® instrument. The intensity of the fluorescence was captured and digitally transferred to an interfaced computer. The maximum response minus minimum response was calculated and expressed as the percentage of the maximum 2-APB response in the absence of antagonist. The concentration of 2-APB corresponds to its EC80.
Table 1 reports the IC50 values measured for the test compounds as human TRPV3 antagonists. […] Actual measured values are shown parenthetically after the reported range. In most cases, the values reported are average values from at least two runs (i.e., n≧2).

[1] = actual measured value shown parenthetically, in most cases average of at least two runs, read-out: IC50
[2] = reported range, read-out: IC50 (range class)

IC50 [1] | IC50 [2] | Structure (SMILES)
1.97 µM | – | O=C1CC(c2ccc(OC(F)(F)F)cc2)([C@H](O)c2ccccn2)C1 (single isomer, unassigned) [Example 251]
0.95 µM | – | CC1(O)CC(c2ccnc(C(F)(F)F)c2)(C(O)c2ccccn2)C1 (single isomer, unassigned) [Example 302]
> 20 µM | > 20 µM | OC(c1ccccn1)C1(c2cc(F)cc(C(F)(F)F)c2)CCC1 (centres unmarked) [Example 14, {1-[3-fluoro-5-(trifluoromethyl)phenyl]cyclobutyl}(pyridin-2-yl)methanol]
> 20 µM | > 20 µM | CS(=O)(=O)c1ccc(C2(C(O)c3ccccn3)CCC2)cc1 (centres unmarked) [Example 16, {1-[4-(methylsulfonyl)phenyl]cyclobutyl}(pyridin-2-yl)methanol]
> 20 µM | > 20 µM | OC(c1ccccn1)C1(c2ccc(-c3ccccc3)cc2)CCC1 (centres unmarked) [Example 22, [1-(1,1′-biphenyl-4-yl)cyclobutyl](pyridin-2-yl)methanol]
3.08 µM | – | OC(c1ncccn1)C1(c2ccc(OC(F)(F)F)cc2)CCC1 (centres unmarked) [Example 31, pyrimidin-2-yl{1-[4-(trifluoromethoxy)phenyl]cyclobutyl}methanol]
> 20 µM | > 20 µM | OC(c1ncccn1)C1(c2ccccc2F)CCC1 (centres unmarked) [Example 32, [1-(2-fluorophenyl)cyclobutyl](pyrimidin-2-yl)methanol]
8.5 µM | – | OC(c1ncccn1)C1(c2cccc(F)c2)CCC1 (centres unmarked) [Example 33, [1-(3-fluorophenyl)cyclobutyl](pyrimidin-2-yl)methanol]
> 20 µM | > 20 µM | OC(c1ncccn1)C1(c2ccc(F)cc2)CCC1 (centres unmarked) [Example 34, [1-(4-fluorophenyl)cyclobutyl](pyrimidin-2-yl)methanol]
10.2 µM | – | OC(c1ncccn1)C1(c2ccc(F)c(F)c2)CCC1 (centres unmarked) [Example 35, [1-(3,4-difluorophenyl)cyclobutyl](pyrimidin-2-yl)methanol]
5.18 µM | – | OC(c1ncccn1)C1(c2ccccc2OC(F)(F)F)CCC1 (centres unmarked) [Example 36, pyrimidin-2-yl{1-[2-(trifluoromethoxy)phenyl]cyclobutyl}methanol]
8 µM | – | CC(c1cccc(Cl)c1)C1(C(O)c2ccccn2)CCC1 (centres unmarked) [Example 44, {1-[1-(3-chlorophenyl)ethyl]cyclobutyl}(pyridin-2-yl)methanol]
2.22 µM | – | CC(c1cccc(F)c1)C1(C(O)c2ccccn2)CCC1 (centres unmarked) [Example 47, {1-[1-(3-fluorophenyl)ethyl]cyclobutyl}(pyridin-2-yl)methanol]
5.68 µM | – | CC(c1ccccc1F)C1(C(O)c2ccccn2)CCC1 (centres unmarked) [Example 48, {1-[1-(2-fluorophenyl)ethyl]cyclobutyl}(pyridin-2-yl)methanol]
8.25 µM | – | CC(c1ccccc1)C1(C(O)c2ccccn2)CCC1 (centres unmarked) [Example 51, [1-(1-phenylethyl)cyclobutyl](pyridin-2-yl)methanol]
1.75 µM | – | CC(c1ccc(C(F)(F)F)cc1)C1(C(O)c2ccccn2)CCC1 (centres unmarked) [Example 53, pyridin-2-yl(1-{1-[4-(trifluoromethyl)phenyl]ethyl}cyclobutyl)methanol]
7.55 µM | – | OC(c1ccccn1)C1(c2ccccc2)CCOCC1 (centres unmarked) [Example 60, (4-phenyltetrahydro-2H-pyran-4-yl)(pyridin-2-yl)methanol]
7.54 µM | – | OC(c1ccccn1)C1(c2cccc(F)c2)CCOCC1 (centres unmarked) [Example 61, [4-(3-fluorophenyl)tetrahydro-2H-pyran-4-yl](pyridin-2-yl)methanol]
11.8 µM | – | OC(c1ccccn1)C1(c2ccc(F)cc2)CCOCC1 (centres unmarked) [Example 62, [4-(4-fluorophenyl)tetrahydro-2H-pyran-4-yl](pyridin-2-yl)methanol]

IC50 [1] | IC50 [2] | Structure (SMILES)
7.17 µM | – | OC(c1ccccn1)C1(c2ccc(F)c(F)c2)CCOCC1 (centres unmarked) [Example 63, [4-(3,4-difluorophenyl)tetrahydro-2H-pyran-4-yl](pyridin-2-yl)methanol]
2.34 µM | – | OC(c1ccccn1)C1(c2ccc(Cl)cc2)CCOCC1 (centres unmarked) [Example 64, [4-(4-chlorophenyl)tetrahydro-2H-pyran-4-yl](pyridin-2-yl)methanol]
2.26 µM | – | OC(c1ccccn1)C1(c2ccc(C(F)(F)F)cc2)CCOCC1 (centres unmarked) [Example 65, pyridin-2-yl{4-[4-(trifluoromethyl)phenyl]tetrahydro-2H-pyran-4-yl}-methanol]
3.68 µM | – | OC(CC1(c2ccccc2)CCC1)c1ccccn1 (centres unmarked) [Example 68, 2-(1-phenylcyclobutyl)-1-(pyridin-2-yl)ethanol]
4.97 µM | – | OC(CC1(c2ccc(Cl)cc2)CCC1)c1ccccn1 (centres unmarked) [Example 69, 2-[1-(4-chlorophenyl)cyclobutyl]-1-(pyridin-2-yl)ethanol]
12 µM | – | OC(CC1(c2ccc(F)cc2)CCC1)c1ccccn1 (centres unmarked) [Example 70, 2-[1-(4-fluorophenyl)cyclobutyl]-1-(pyridin-2-yl)ethanol]
2.13 µM | – | OC(CC1(c2cccc(F)c2)CCC1)c1ccccn1 (centres unmarked) [Example 71, 2-[1-(3-fluorophenyl)cyclobutyl]-1-(pyridin-2-yl)ethanol]
2.24 µM | – | OC(CC1(c2cccc(Cl)c2)CCC1)c1ccccn1 (centres unmarked) [Example 72, 2-[1-(3-chlorophenyl)cyclobutyl]-1-(pyridin-2-yl)ethanol]
1.94 µM | – | OC(CC1(c2ccc(Cl)c(Cl)c2)CCC1)c1ccccn1 (centres unmarked) [Example 73, 2-[1-(3,4-dichlorophenyl)cyclobutyl]-1-(pyridin-2-yl)ethanol]
3.56 µM | – | OC(c1ccccn1)C1(c2ccc(C(F)(F)F)cc2)CCOC1 (centres unmarked) [Example 78, pyridin-2-yl{3-[4-(trifluoromethyl)phenyl]tetrahydrofuran-3-yl}methanol]
> 20 µM | > 20 µM | N#Cc1ccc(C2(C(O)c3ccccn3)CCOC2)cc1 (centres unmarked) [Example 79, 4-{3-[hydroxy(pyridin-2-yl)methyl]tetrahydrofuran-3-yl}benzonitrile]
1.78 µM | – | OC(c1ccccn1)C1(c2cccc(OC(F)(F)F)c2)CCOC1 (centres unmarked) [Example 80, pyridin-2-yl{3-[3-(trifluoromethoxy)phenyl]tetrahydrofuran-3-yl}methanol]
> 20 µM | > 20 µM | N#Cc1cccc(C2(C(O)c3ccccn3)CCOC2)c1 (centres unmarked) [Example 81, 3-{3-[hydroxy(pyridin-2-yl)methyl]tetrahydrofuran-3-yl}benzonitrile]
> 20 µM | > 20 µM | COc1ccc(C2(C(O)c3ccccn3)CCOC2)cc1 (centres unmarked) [Example 83, [3-(4-methoxyphenyl)tetrahydrofuran-3-yl](pyridin-2-yl)methanol]
> 20 µM | > 20 µM | COc1ccc(C2(C(O)c3ccccn3)CCOC2)cc1OC (centres unmarked) [Example 84, [3-(3,4-dimethoxyphenyl)tetrahydrofuran-3-yl](pyridin-2-yl)methanol]
3.56 µM | – | OC(c1ccccn1)C1(c2cccc(Cl)c2)COC1 (centres unmarked) [Example 86, [3-(3-chlorophenyl)oxetan-3-yl](pyridin-2-yl)methanol]
> 20 µM | > 20 µM | OC(C1CCCc2cccnc21)C1(c2ccccc2C(F)(F)F)CCC1 (stereo not drawn) [Example 196, (syn)-5,6,7,8-tetrahydroquinolin-8-yl{1-[2-(trifluoromethyl)phenyl]-cyclobutyl}methanol]
3.99 µM | – | NC1CCCCC1C(O)C1(c2ccc(C(F)(F)F)cc2)CCC1 (centres unmarked) [Example 207, (2-aminocyclohexyl) {1-[4-(trifluoromethyl)phenyl]cyclobutyl}methanol]
